According to patent US6683095B2, “CDK inhibitors having 3-hydroxychromen-4-one structure” (LG Life Sciences Ltd., priority 2000, dated 2004):

Columns and labels:
CDK2/cyclin A = biological target: T1, CDK2/cyclin A (Homo sapiens, UniProt P24941); assay: Inhibitory activity against CDK2 (CDK2/cyclin A kinase assay, GST-Rb substrate, 32P-ATP); assay type: biochemical; conditions: 100 μM ATP, 30° C., 30 minutes
T1 construct: His; made in house; host or cells: insect cell (baculovirus co-infection)
Procedure: The inhibitory activity against CDK2 was measured by referring to Kitagawa, M. et al., Oncogene 9; 2549, 1994 and that against CDK4 was measured by referring to Carlson, B. A. et al., Cancer Research 56; 2473, 1996.
The part of amino acid positions 780 to 928 of C-terminus of human Rb protein was isolated, N-terminus thereof was labelled with GST protein, large amount thereof was expressed in bacteria and purified to be used as the substrate for the enzyme.
(§1) The activities of CDK2/cyclin A and CDK4/cyclin D1 were determined as follows. About 100 ng of enzyme was reacted in a total 100 μl of 20 mM Tris(pH 8.0), 100 mM NaCl, 10 mM MgCl2 buffer solution containing 20 μg of GST-Rb protein, 100 μM of ATP and 5 μCi of p^32-γ-ATP at 30° C. for 30 minutes. Then, EDTA was added to a concentration of 20 mM to stop the enzyme reaction. Subsequently, 30 μl of 50% glutathione bead (purchased from Pharmacia) was added to attach GST-Rb to the bead, which was washed three times with 20 mM Tris(pH 8.0), 100 mM NaCl, 10 mM EDTA solution, and then scintillation counting was carried out. To analyze the inhibitory activity of the compound, the inhibitor having a proper concentration was added to the enzyme reaction solution, and then the enzyme activity was measured according to the above method.
The inhibitory activity against CDK2 and CDK4 of the compound of formula (1) according to the present invention was represented as IC50 value (see the following Table 1).

CDK4/cyclin D1 = biological target: T2, CDK4/cyclin D1 (Homo sapiens, UniProt P11802); assay: Inhibitory activity against CDK4 (CDK4/cyclin D1 kinase assay, GST-Rb substrate, 32P-ATP); assay type: biochemical; conditions: 100 μM ATP, 30° C., 30 minutes
T2 construct: GST; made in house; host or cells: insect cell
Procedure: as §1

T2 sequence (P11802 whole entry): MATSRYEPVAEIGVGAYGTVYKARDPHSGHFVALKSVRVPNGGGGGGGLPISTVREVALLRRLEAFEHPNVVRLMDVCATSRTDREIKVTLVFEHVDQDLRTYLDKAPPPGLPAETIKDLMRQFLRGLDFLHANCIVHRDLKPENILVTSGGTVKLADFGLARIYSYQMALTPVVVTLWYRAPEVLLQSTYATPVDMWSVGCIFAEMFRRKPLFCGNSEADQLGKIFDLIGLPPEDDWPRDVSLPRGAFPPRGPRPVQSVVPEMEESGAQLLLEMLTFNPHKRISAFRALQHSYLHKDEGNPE
T2 sequence (P24385 whole entry partner): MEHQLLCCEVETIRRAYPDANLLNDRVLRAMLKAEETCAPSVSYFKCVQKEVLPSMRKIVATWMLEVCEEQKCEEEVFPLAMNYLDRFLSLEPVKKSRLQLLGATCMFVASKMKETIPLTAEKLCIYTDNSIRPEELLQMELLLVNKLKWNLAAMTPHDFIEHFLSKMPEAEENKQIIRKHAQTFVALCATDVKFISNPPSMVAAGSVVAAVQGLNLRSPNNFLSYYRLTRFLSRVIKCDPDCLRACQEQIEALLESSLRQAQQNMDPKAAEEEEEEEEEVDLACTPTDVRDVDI

Question: What does the source list for `Cc1cc(N)c2oc(-c3ccc(O)c(F)c3)c(O)c(=O)c2c1` [Compound 9, 8-amino-2-(3-fluoro-4-hydroxyphenyl)-3-hydroxy-6-methyl-4H-chromen-4-one]?
Answer: IC50 (CDK2/cyclin A): 14000 nM; IC50 (CDK4/cyclin D1): 16000 nM

Question: Which IC50 (CDK2/cyclin A) does the source give for `CCN(CC)c1cc(N2CCCS2(=O)=O)c2oc(-c3ccc(O)cc3)c(O)c(=O)c2c1` [Compound 27, 2-[6-(diethylamino)-3-hydroxy-2-(4-hydroxyphenyl)-4-oxo-4H-chromen-8-yl]-1λ^6-isothiazolidin-1,1-dione] here?
Answer: Its IC50 is 9000 nM.

Question: What about the IC50 (CDK4/cyclin D1) of the same molecule?
Answer: Its IC50 is 7100 nM.

Question: For `CN(C)c1cc(N2CCCS2(=O)=O)c2oc(-c3ccc(O)cc3)c(O)c(=O)c2c1` [Compound 26, 2-[6-(dimethylamino)-3-hydroxy-2-(4-hydroxyphenyl)-4-oxo-4H-chromen-8-y]-1λ^6-isothiazolidin-1,1-dione], which IC50 (CDK2/cyclin A) is on record?
Answer: Its IC50 is 220 nM.

Question: What about the IC50 (CDK4/cyclin D1) of the same molecule?
Answer: The IC50 was 710 nM.

Question: What does the source list for `O=c1c(O)c(-c2ccc(O)cc2)oc2c(N3CCCS3(=O)=O)cc(NCc3ccccc3)cc12` [Compound 28, 2-[6-(benzylamino)-3-hydroxy-2-(4-hydroxyphenyl)-4-oxo-4H-chromen-8-yl]-1λ^6-isothiazolidin-1,1-dione]?
Answer: IC50 (CDK2/cyclin A): 2240 nM; IC50 (CDK4/cyclin D1): 3200 nM

Question: Which results are given for `CNc1cc(N2CCCS2(=O)=O)c2oc(-c3ccc(O)cc3)c(O)c(=O)c2c1` [Compound 32, 2-[3-hydroxy-2-(4-hydroxyphenyl)-6-(methylamino)-4-oxo-4H-chromen-8-yl]-1λ^6-isothiazolidin-1,1-dione]?
Answer: IC50 (CDK2/cyclin A): 224 nM; IC50 (CDK4/cyclin D1): 540 nM

Question: How did the IC50 (CDK2/cyclin A) turn out when `Cc1cc(C2CCN(C)CC2)c2oc(-c3ccc(O)c(C(F)(F)F)c3)c(O)c(=O)c2c1` [Compound 43, 3-hydroxy-2-(4-hydroxy-3-trifluoromethylphenyl)-6-methyl-8-(1-methyl-4-piperidinyl)-4H-chromen-4-one] was run?
Answer: Its IC50 is 6300 nM.

Question: What about the IC50 (CDK4/cyclin D1) of the same molecule?
Answer: Its IC50 is under 1000 nM.

Question: How did the IC50 (CDK2/cyclin A) turn out when `Cc1cc(N)c2oc(-c3cccc(O)c3)c(O)c(=O)c2c1` [Compound 12, 8-amino-3-hydroxy-2-(3-hydroxyphenyl)-6-methyl-4H-chromen-4-one] was run?
Answer: Its IC50 is 2000 nM.

Question: What about the IC50 (CDK4/cyclin D1) of the same molecule?
Answer: The IC50 was 2100 nM.

Question: What does the source list for `CN(CCO)c1cc(N2CCCS2(=O)=O)c2oc(-c3ccc(O)cc3)c(O)c(=O)c2c1` [Compound 33, 2-{3-hydroxy-6-[(2-hydroxyethyl)(methyl)amino]-2-(4-hydroxyphenyl)-4-oxo-4H-chromen-8-yl}-1λ^6-isothiazolidin-1,1-dione]?
Answer: IC50 (CDK2/cyclin A): 600 nM; IC50 (CDK4/cyclin D1): 900 nM

Question: Which results are given for `CC(=O)Nc1cc(-c2oc3ccc(C)cc3c(=O)c2O)ccc1O` [Compound 6, N-[2-hydroxy-5-(3-hydroxy-6-methyl-4-oxo-4H-chromen-2-yl)phenyl]acetamide]?
Answer: IC50 (CDK2/cyclin A): 30000 nM; IC50 (CDK4/cyclin D1): 10000 nM

Question: Which results are given for `O=c1c(O)c(-c2ccc(O)cc2)oc2c(N3CCCS3(=O)=O)cc(NC3CCNCC3)cc12` [Compound 29, 2-[3-hydroxy-2-(4-hydroxyphenyl)-4-oxo-6-(4-piperidinylamino)-4H-chromen-8-yl]-1λ^6-isothiazolidin-1,1-dione]?
Answer: IC50 (CDK2/cyclin A): 1800 nM; IC50 (CDK4/cyclin D1): 1700 nM

Question: Which results are given for `Cc1cc(N)c2oc(-c3ccc(N)cc3)c(O)c(=O)c2c1` [Compound 11, 8-amino-2-(4-aminophenyl)-3-hydroxy-6-methyl-4H-chromen-4-one]?
Answer: IC50 (CDK2/cyclin A): 150000 nM; IC50 (CDK4/cyclin D1): 50000 nM

Question: How did the IC50 (CDK2/cyclin A) turn out when `Cc1cc(N2CCCS2(=O)=O)c2oc(-c3ccc(O)c(C#N)c3)c(O)c(=O)c2c1` [Compound 19, 5-[8-(1,1-dioxo-1λ^6-isothiazolidin-2-yl)-3-hydroxy-6-methyl-4-oxo-4H-chromen-2-yl]-2-hydroxybenzonitrile] was run?
Answer: Its IC50 is 1400 nM.

Question: What about the IC50 (CDK4/cyclin D1) of the same molecule?
Answer: The IC50 was 790 nM.

Question: Which IC50 (CDK2/cyclin A) does the source give for `Cc1cc(C2CCN(CCN)CC2)c2oc(-c3ccc(O)c(Cl)c3)c(O)c(=O)c2c1` [Compound 45, 8-[1-(2-aminoethyl)-4-piperidinyl]-2-(3-chloro-4-hydroxyphenyl)-3-hydroxy-6-methyl-4H-chromen-4-one] here?
Answer: The IC50 was under 1000 nM.

Question: And the IC50 (CDK4/cyclin D1)?
Answer: Its IC50 is under 1000 nM.

Question: Which results are given for `Nc1cc(N2CCCS2(=O)=O)c2oc(-c3ccc(O)cc3)c(O)c(=O)c2c1` [Compound 25, 2-[6-amino-3-hydroxy-2-(4-hydroxyphenyl)-4-oxo-4H-chromen-8-yl]-1λ^6-isothiazolidin-1,1-dione]?
Answer: IC50 (CDK2/cyclin A): 88 nM; IC50 (CDK4/cyclin D1): 1200 nM
